Measurements taken from patent US6344208B1, “Pheromone baits for social insects” (priority 1989, dated 2002).

Experiments:
Format in all cases: in vivo
[1] = tested on: Acromyrmex octospinosus; experiment: Research and laboratory trials on behaviour induced by synthetic alarm pheromone components; conditions: research by the applicant
Excerpt: Recent research by the applicant on the neotropical leaf-cutting ant Acromyrmex octospinosus has shown that […] components of the alarm pheromone of this ant, namely 3-octanol and 3-octanone, attract nestmates and induce the laying of trails around the source which ensure that nestmates are then attracted towards the source for some time and attack the source on arrival.
It is expected that this surprising effect will be shown by synthetic components of pheromones of other insects, especially social insects.
The synthetic pheromone compounds may therefore be used in food baits in contrast to what would be expected.

[2] = tested on: Atta sexdens; experiment: Field Trial 5: Mirex sachets with single pheromone component scattered randomly at cutting site; conditions: Trial 5, 50 μl component; for discovery and opening of sachets: sachets over about 10 m^2 where ants were cutting leaves
Protocol: (§1) The insecticide bait Mirex was used in all the trials. In Trials 3 and 4 the bait was presented to the ants in black plastic sachets 8 cm^2 placed inside wire cages, which provided protection from cattle, horses, small manamals and birds. The empty cages were placed in the field 24 hours prior to the start of the experiment. The Mire sachets were prepared and a component of mandibular gland alarm pheromone of the ant species concerned was added to the treatment sachets. In Trial 5 the sachets were not placed in cages but were scattered randomly at the cutting site. Five components or the alarm pheromone were tested. Rubber septa, used to provide a slow-release substrate, were dosed with 50 μl of component and then sealed inside the Mirex sachets. Control sachets were sealed with untreated rubber septa. The sachets were transferred immediately to the field sites. The fate of the sachets was then monitored over a 3 day period.
Trial 5: Sachets containing, separately, citral (E), 4-methyl-3-heptanone H and 6-methyl-5-hepten-2-one (G) were distributed randomly over an area of about 10 m^2 where ants were actively cutting leaves.

[3] = tested on: Atta sexdens; experiment: Field Trial 3: Mirex sachets with single pheromone component placed 1 metre from nest entrance on active trails; conditions: Trial 3, 50 μl component on rubber septum, components tested separately
Protocol: as §1
Trial 3: Sachets were placed 1 metre from the nest entrance hole on active trials of A. sexdens. Five synthetic components of the alarm pheromone were tested, separately; citral, farnesol, 6-methyl-5-hepten-2-one, 4-methyl-3-heptanone and geraniol. […] The results for the five synthetic pheromones were pooled.

SMILES	behaviour induced in nestmates by the alarm pheromone component [1]	time until all the bait had been transported back to the nest [2] [min]	discovery and opening of sachets [2]	fate of test sachets [3]
CCCCCC(O)CC (centres unmarked) [3-octanol]	mainly controls attraction to the source, the laying of pheromone trails radiating out from the source, and biting	–	–	–
CCCCCC(=O)CC [3-octanone]	mainly causes recruitment of ants from the peripheral area	–	–	–
CCCC(C)C(=O)CC (centres unmarked) [4-methyl-3-heptanone]	–	≤ 30	discovered and opened immediately	cut open and the contents transported into the nest
CC(=O)CCC=C(C)C [6-methyl-5-hepten-2-one]	–	–	discovered and opened immediately	cut open and the contents transported into the nest
CC(C)=CCCC(C)=CC=O [citral]	–	–	discovered and opened immediately	cut open and the contents transported into the nest
CC(C)=CCCC(C)=CCCC(C)=CCO [farnesol]	–	–	–	cut open and the contents transported into the nest
CC(C)=CCC/C(C)=C/CO [geraniol]	–	–	–	cut open and the contents transported into the nest
